Assay [1] concerns MCF7 (B3). The assay is described as follows: Cell line drug profiling, CellTiter Glo. Format: cell-based. The note with it: Homo sapiens, Breast, 72 h. The method, then:
(§1) We tested the cytotoxicity of representative compounds from the seven EXO1i scaffolds against a subset of the NCI-60 cell line panel along with three additional pancreatic cell lines (FG, AsPC1, and CaPan2). In general, cells were seeded in 384-well tissue culture-treated plates overnight and treated with various concentrations of each hit compound (a serial 3-fold dilution from 50 μM for all tested hits). Each concentration was performed in duplicate. Cell viability was then measured by CellTiter Glo (Promega) after 72 h of treatment.
On the technique in general: In ATP-based viability assays light output follows the ATP content of the culture.

In assay [2] the test system is BT549. The assay is described as follows: Cell line drug profiling, CellTiter Glo. The note with it: Homo sapiens, BT-549; BT549, Breast, 72 h. In kind it is cell-based. Here is the method: as §1
Assay [3] deals with FG. The assay is described as follows: Cell line drug profiling, CellTiter Glo. The following applies: Homo sapiens, Pancreatic, 72 h. In kind it is cell-based. Here is the method:
as §1

Assay [4] has as its system CaPan2. Nature of the assay: Cell line drug profiling, CellTiter Glo. Format: cell-based. The following applies: Homo sapiens, Capan-2; CaPan2, Pancreatic, 72 h. Here is the method: as §1
Assay [5] relates to MCF7. The assay is described as follows: Cell line drug profiling, CellTiter Glo. The following applies: Homo sapiens; MCF7, Breast, 72 h. Format: cell-based. Here is the method: as §1
Assay [6] deals with SF-268. Nature of the assay: Cell line drug profiling, CellTiter Glo. Format: cell-based. The following applies: Homo sapiens; SF-268, Central Nervous System, 72 h. The method, then: as §1
Assay [7] deals with UO-31. The assay is described as follows: Cell line drug profiling, CellTiter Glo. The following applies: Homo sapiens; UO-31, Kidney, 72 h. Format: cell-based. Here is the method:
as §1

Assay [8] has as its system HL-60(TB). Nature of the assay: Cell line drug profiling, CellTiter Glo. The following applies: Homo sapiens, Leukemia, 72 h. In kind it is cell-based. Here is the method: as §1
For assay [9], the system named is SK-MEL-28. The assay is described as follows: Cell line drug profiling, CellTiter Glo. In kind it is cell-based. The following applies: Homo sapiens; SK-MEL-28, Melanoma, 72 h. Here is the method:
as §1

Assay [10] deals with OVCAR-3. The assay is described as follows: Cell line drug profiling, CellTiter Glo. In kind it is cell-based. The following applies: Homo sapiens; OVCAR-3, Ovarian, 72 h. Here is the method:
as §1

Assay [11] deals with ACHN. The assay is described as follows: Cell line drug profiling, CellTiter Glo. Format: cell-based. The following applies: Homo sapiens, Kidney, 72 h. The method, then: as §1
Assay [12] relates to HS 578T. Nature of the assay: Cell line drug profiling, CellTiter Glo. The following applies: Homo sapiens, Breast, 72 h. Format: cell-based. The method, then: as §1
In assay [13] the test system is CCRF-CEM. The assay is described as follows: Cell line drug profiling, CellTiter Glo. In kind it is cell-based. The following applies: Homo sapiens, Leukemia, 72 h. The method, then:
as §1

For assay [14], the system named is AsPC1. Nature of the assay: Cell line drug profiling, CellTiter Glo. Format: cell-based. The following applies: Homo sapiens; AsPC1, Pancreatic, 72 h. Here is the method:
as §1

The test system of assay [15] is MDA-MB-231. Nature of the assay: Cell line drug profiling, CellTiter Glo. In kind it is cell-based. The following applies: Homo sapiens; MDA-MB-231, Breast, 72 h. Here is the method:
as §1

Assay [16] addresses T1, FEN1 (Homo sapiens, UniProt P39748).
T1 construct: made in house
The assay is described as follows: Analogous FRET-based counter screen with purified FEN1. In kind it is biochemical. The following applies: FRET-based assay, maximum inhibitor concentration 100 μM. Here is the method:
Data were normalized by subtracting the relative fluorescence unit (RFU) of the blank sample from that of each EXO1-containing reaction. The relative activity of individual compounds was subsequently calculated by setting the corrected RFU of EXO1 with DMSO as 100% and comparing the corrected RFU for each condition to the DMSO value. Each assay was performed by sequentially adding experimental compounds, the EXO1 enzyme, and the DNA substrate to minimize starting differences. […] Following IC50 screening, an analogous FRET-based assay was performed using purified FEN1 to assess the EXO1 specificity of each compound.
For subsequent hit confirmation, 84 compounds from the primary screen were picked from our internal stock and subjected to a dose-dependent response assay starting at 100 μM with 3-fold serial dilution. To analyze the data from the dose-dependent response assay, IC50 values for each hit were calculated through nonlinear regression analysis using GraphPad Prism 10 (GraphPad Software, Inc.). […] Subsequently, a counter screen was performed to eliminate potential false-positive hits. To accomplish this, we established an analogous FRET assay using the purified FEN1 enzyme in place of EXO1.

Assay [17] relates to MDA-MB-436 cells. The assay is described as follows: S-phase PARylation immunofluorescence. In kind it is cell-based, human. The note with it: MDA-MB-436 BRCA1− and BRCA1+ cells, 10 or 50 μM overnight. Here is the method:
(b) Quantification of the relative PARylation per nucleus from panel a. […] Strong PARylation foci are observed in BRCA1– cells. […] (d) Quantification of the relative PARylation per nucleus from panel c.
Cells were seeded at a density of 3× 10^5 cells per well in 12-well plates with preplaced coverslips and treated with or without various inhibitor treatments overnight. Cells were then incubated with EdU for 30 min before collection. For PARylation analysis, cells were permeabilized with 0.1% Triton X100, fixed with 4% paraformaldehyde, blocked with the Image-iT FX signal enhancer (Invitrogen), and incubated (1.5 h, RT) with the indicated primary antibodies (PAR/pADPr Antibody; Biotechne). The cells were then washed with PBS buffer and incubated (1 h, RT) with the corresponding secondary antibodies (1:200, Invitrogen). Subsequently, the fixed cells were incubated with the Click-iT reaction mix (100 mM Tris-HCl pH 8.5, […], 1 mM CuSO4, and 100 mM ascorbic acid (Sigma-Aldrich)) for 1 h at RT. The slides were then washed with the PBS buffer, counterstained with DAPI, and analyzed with a fluorescence microscope (Zeiss Observer Z1). […] The slides were then washed with the PBS buffer, incubated with the Click-iT reaction mix for EdU as aforementioned, counterstained with DAPI, and analyzed with a fluorescence microscope (Zeiss Observer Z1).

Assay [18] deals with MDA-MB-468. Nature of the assay: Cell line drug profiling, CellTiter Glo. Format: cell-based, human. The note with it: Homo sapiens, MDA-MB-468, 72 h. The method, then:
as §1

Experimental findings from publication PMC12186255, “Discovery and Characterization of Small Molecule Inhibitors Targeting Exonuclease 1 for Homologous Recombination-Deficient Cancer Therapy” (ACS Chemical Biology, 2025) are described below.

What is called IC50 is the concentration that inhibits the measured activity by half.

T1 sequence (P39748 whole entry): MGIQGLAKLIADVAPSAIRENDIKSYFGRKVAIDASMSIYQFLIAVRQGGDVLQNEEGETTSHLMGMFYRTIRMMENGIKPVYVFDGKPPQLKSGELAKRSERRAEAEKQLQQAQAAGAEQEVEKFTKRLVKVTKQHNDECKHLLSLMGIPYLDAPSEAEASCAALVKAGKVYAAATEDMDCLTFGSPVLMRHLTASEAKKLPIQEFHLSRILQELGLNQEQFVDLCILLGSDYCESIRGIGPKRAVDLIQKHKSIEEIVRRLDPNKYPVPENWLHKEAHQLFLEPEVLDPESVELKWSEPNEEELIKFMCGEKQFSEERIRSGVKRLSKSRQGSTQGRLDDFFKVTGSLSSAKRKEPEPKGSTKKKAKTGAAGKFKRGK

Turning to `Cc1cccc(N2CCN(c3ccc(NS(=O)(=O)c4ccccc4)c(C(=O)O)c3)CC2)c1C` [F684], the IC50 in assay [1] worked out at 23.6 µM; in [2], 12 µM; in assay [3] it was 27.5 µM; in [4], 48.1 µM; in [5], 20.1 µM; in [6] it was 38.6 µM. Besides, the IC50 in [7] was 20.6 µM; in [8] it was 20.1 µM; in assay [9] it was 38 µM; in [10], 10.9 µM; in assay [11], 28.9 µM; in assay [12] it was 18.2 µM. Besides, the IC50 in assay [13] was 14.6 µM; in assay [14] it was > 50 µM; in [15], 28.6 µM; in assay [16], > 100 µM; in assay [18], 23.6 µM. For the same molecule, in assay [17], the “S-phase PARylation” value is on record as “additive effect”.

Take `COC(=O)c1nc(-c2ccc(OC)cc2)nc(O)c1O` [C200]: the IC50 in [1], in [2], in assay [3], in [4], in assay [5] and in assay [6] was > 50 µM throughout. For the same molecule, the IC50 in assay [7], in assay [8], in assay [9], in assay [10], in assay [11] and in [12] was > 50 µM in each case. Besides, the half-inhibitory concentration (IC50) in assay [13] is 27.4 µM; in assay [14] it was > 50 µM; in assay [15], > 50 µM; in assay [16], > 100 µM; in assay [18], > 50 µM. The “S-phase PARylation” value in assay [17] is reported as “no effect”.
